Assay results: article PMC12203862, “BroadAMP-GPT: AI-Driven generation of broad-spectrum antimicrobial peptides for combating multidrug-resistant ESKAPE pathogens” (Gut Microbes, 2025)
Values after ≈ are worked out from the molar mass of the structure shown. Where two headings read alike, the source gives them in different places.

What was measured:
S. enteritis S1 = experiment: organism not typed; format: cell-based; details: Table 1, S. enteritis S1, broth microdilution
Description: (§1) Bacterial strains and growth conditions: All Gram-negative and Gram-positive bacterial strains (Supplementary Table S8) were cultured in Luria-Bertani (LB) or trypticase soy broth (TSB) agar plates, respectively, and incubated overnight at 37 °C unless specifically indicated. A single colony of the tested bacterial strains was inoculated into medium broth with shaking at 220 rpm for further experiments.
(§2) Minimal inhibitory concentrations: Antimicrobial susceptibility testing was performed by broth microdilution method for AMPs against Gram-positive and Gram-negative pathogens above mentioned, following the methods of document CLSI M100-ED34.[43] The MICs were defined as the lowest concentrations that inhibit visible growth of the tested bacteria. E. coli ATCC 25,922 and S. aureus ATCC 29,213 were served as quality controls.

P. aeruginosa PAO1 = experiment: microbe, parasite or virus in culture; format: cell-based; details: Table 1, P. aeruginosa PAO1, broth microdilution
Description: as §1, §2

P. aeruginosa PA14 = experiment: microbe, parasite or virus in culture; format: cell-based; details: Table 1, P. aeruginosa PA14, broth microdilution
Description: as §1, §2

A. baumannii AB11 = experiment: microbe, parasite or virus in culture; format: cell-based; details: Table 1, A. baumannii AB11, broth microdilution
Description: as §1, §2

K. pneumoniae 9-1 = experiment: microbe, parasite or virus in culture; format: cell-based; details: Table 1, K. pneumoniae 9-1, broth microdilution
Description: as §1, §2

A. baumannii 7979 = experiment: microbe, parasite or virus in culture; format: cell-based; details: Table 1, A. baumannii 7979, broth microdilution
Description: as §1, §2

E. coli ATCC 25922 = experiment: microbe, parasite or virus in culture; format: cell-based; details: Table 1, E. coli ATCC 25922, broth microdilution
Description: as §1, §2

S. suis P1/7 = experiment: microbe, parasite or virus in culture; details: Streptococcus suis, P1/7
Description: as §1
as §2, with “bacteria.” for “bacteria. E. coli ATCC 25,922 and S. aureus ATCC 29,213 were served as quality controls.”

E. faecalis JH2-2 = experiment: microbe, parasite or virus in culture; format: cell-based; details: Enterococcus faecalis, JH22; Table 1; E. faecalis JH2-2; broth microdilution; read-out: MIC
Description: as §1, §2

E. faecalis SF23-1 = experiment: microbe, parasite or virus in culture; format: cell-based; details: Enterococcus faecalis, SF231; Table 1; E. faecalis SF23-1; ermB, tetL, cfr; broth microdilution; read-out: MIC
Description: as §1, §2

S. aureus M147-2 = experiment: microbe, parasite or virus in culture; format: cell-based; details: Staphylococcus aureus, M1472; Table 1; S. aureus M147-2; ermB, tetL, cfr; broth microdilution; read-out: MIC
Description: as §1, §2

S. agalactiae DL03 = experiment: microbe, parasite or virus in culture; format: cell-based; details: Streptococcus agalactiae; Table 1; S. agalactiae DL03; ermB; broth microdilution; read-out: MIC
Description: as §1, §2

E. faecium MC38 = experiment: microbe, parasite or virus in culture; format: cell-based; details: Enterococcus faecium; Table 1; E. faecium MC38; ermB, optrA; broth microdilution; read-out: MIC
Description: as §1, §2

S. aureus YZSA-21 = experiment: microbe, parasite or virus in culture; format: cell-based; details: Staphylococcus aureus, YZSA21; Table 1; S. aureus YZSA-21; ermC; broth microdilution; read-out: MIC
Description: as §1, §2

S. aureus YZSA-15 = experiment: microbe, parasite or virus in culture; format: cell-based; details: Staphylococcus aureus, YZSA15; Table 1; S. aureus YZSA-15; ermC, vanB; broth microdilution; read-out: MIC
Description: as §1, §2

S. pyogenes DL02 = experiment: microbe, parasite or virus in culture; format: cell-based; details: Streptococcus pyogenes; Table 1; S. pyogenes DL02; ermB; broth microdilution; read-out: MIC
Description: as §1, §2

E. faecalis J2 = experiment: microbe, parasite or virus in culture; format: cell-based; details: Enterococcus faecalis; Table 1; E. faecalis J2; ermB, optrA; broth microdilution; read-out: MIC
Description: as §1, §2

S. aureus M92-1 = experiment: microbe, parasite or virus in culture; format: cell-based; details: Staphylococcus aureus, M921; Table 1; S. aureus M92-1; ermB, tetL, optrA; broth microdilution; read-out: MIC
Description: as §1, §2

S. aureus YZSA-24 = experiment: microbe, parasite or virus in culture; format: cell-based; details: Staphylococcus aureus, YZSA24; Table 1; S. aureus YZSA-24; ermC, mecA; broth microdilution; read-out: MIC
Description: as §1, §2

E. faecalis ES01 = experiment: microbe, parasite or virus in culture; format: cell-based; details: Enterococcus faecalis; Table 1; E. faecalis ES01; ermB, vanB; broth microdilution; read-out: MIC
Description: as §1, §2

E. faecium HFY01 = experiment: microbe, parasite or virus in culture; format: cell-based; details: Enterococcus faecium; Table 1; E. faecium HFY01; broth microdilution; read-out: MIC
Description: as §1, §2

S. suis SH0918 = experiment: microbe, parasite or virus in culture; format: cell-based; details: Streptococcus suis; Table 1; S. suis SH0918; ermB, tetO, optrA; broth microdilution; read-out: MIC
Description: as §1, §2

E. faecium QF31 = experiment: microbe, parasite or virus in culture; format: cell-based; details: Enterococcus faecium; Table 1; E. faecium QF31; ermB, cfr; broth microdilution; read-out: MIC
Description: as §1, §2

S. aureus ATCC 29213 = experiment: microbe, parasite or virus in culture; format: cell-based; details: Staphylococcus aureus, ATCC29213
[1] = Table 1, S. aureus ATCC 29213, broth microdilution, CLSI M100-ED34, read-out: MIC
[2] = Pseudomonas aeruginosa, read-out: MIC
[3] = Acinetobacter baumannii, read-out: MIC
[4] = Klebsiella pneumoniae, 91, read-out: MIC
[5] = Escherichia coli, ATCC25922, read-out: MIC

Compound	MIC (S. suis P1/7)	MIC (E. faecalis JH2-2)	MIC (E. faecalis SF23-1)	MIC (S. aureus M147-2)	MIC (S. agalactiae DL03)	MIC (E. faecium MC38)	MIC (S. aureus YZSA-21)	MIC (S. aureus YZSA-15)	MIC (S. pyogenes DL02)	MIC (E. faecalis J2)	MIC (S. aureus M92-1)	MIC (S. aureus YZSA-24)	MIC (E. faecalis ES01)	MIC (E. faecium HFY01)	MIC (S. suis SH0918)	MIC (E. faecium QF31)	MIC (S. aureus ATCC 29213; [1])	MIC (S. enteritis S1; read-out: MIC)	MIC (P. aeruginosa PAO1; [2])	MIC (P. aeruginosa PA14; [2])	also measured
colistin [CST]																					MIC (S. enteritis S1): 0.5 µg/mL; MIC (P. aeruginosa PAO1): 0.125 µg/mL; MIC (P. aeruginosa PA14): <0.06 µg/mL; MIC (A. baumannii AB11): 8 µg/mL; MIC (K. pneumoniae 9-1): 1 µg/mL; MIC (A. baumannii 7979): <0.06 µg/mL; MIC (E. coli ATCC 25922): 1 µg/mL
CC(=O)NC[C@H]1CN(c2ccc(N3CCOCC3)c(F)c2)C(=O)O1 [LZD, linezolid]	0.125 µg/mL (≈ 0.371 µM)	0.5 µg/mL (≈ 1.48 µM)	16 µg/mL (≈ 47.4 µM)	8 µg/mL (≈ 23.7 µM)	1 µg/mL (≈ 2.96 µM)	2 µg/mL (≈ 5.93 µM)	1 µg/mL (≈ 2.96 µM)	0.5 µg/mL (≈ 1.48 µM)	< 0.06 µg/mL	8 µg/mL (≈ 23.7 µM)	8 µg/mL (≈ 23.7 µM)	0.5 µg/mL (≈ 1.48 µM)	2 µg/mL (≈ 5.93 µM)	2 µg/mL (≈ 5.93 µM)	8 µg/mL (≈ 23.7 µM)	2 µg/mL (≈ 5.93 µM)	1 µg/mL (≈ 2.96 µM)				
CNC(C)C1CCC(N)C(OC2C(N)CC(N)C(OC3OCC(C)(O)C(NC)C3O)C2O)O1 (stereo not drawn) [GEN, gentamicin]	4 µg/mL (≈ 8.38 µM)	4 µg/mL (≈ 8.38 µM)	8 µg/mL (≈ 16.8 µM)	> 64 µg/mL	16 µg/mL (≈ 33.5 µM)	> 64 µg/mL	0.5 µg/mL (≈ 1.05 µM)	0.5 µg/mL (≈ 1.05 µM)	1 µg/mL (≈ 2.09 µM)	> 64 µg/mL	> 64 µg/mL	1 µg/mL (≈ 2.09 µM)	> 64 µg/mL	< 0.06 µg/mL	16 µg/mL (≈ 33.5 µM)	> 64 µg/mL	1 µg/mL (≈ 2.09 µM)	0.25 µg/mL (≈ 0.523 µM)	0.125 µg/mL (≈ 0.262 µM)	< 0.06 µg/mL	MIC (A. baumannii AB11; [3]): < 0.06 µg/mL; MIC (K. pneumoniae 9-1; [4]): > 64 µg/mL; MIC (A. baumannii 7979; [3]): > 64 µg/mL; MIC (E. coli ATCC 25922; [5]): 4 µg/mL (≈ 8.38 µM)
CCC[C@@H]1C[C@@H](C(=O)N[C@@H]([C@H]2O[C@H](SC)[C@H](O)[C@@H](O)[C@H]2O)[C@H](C)Cl)N(C)C1 [CLI, clindamycin]	0.125 µg/mL (≈ 0.294 µM)	0.5 µg/mL (≈ 1.18 µM)	> 64 µg/mL	> 64 µg/mL	> 64 µg/mL	> 64 µg/mL	> 64 µg/mL	> 64 µg/mL	> 64 µg/mL	> 64 µg/mL	> 64 µg/mL	> 64 µg/mL	> 64 µg/mL	0.5 µg/mL (≈ 1.18 µM)	> 64 µg/mL	> 64 µg/mL		> 64 µg/mL	> 64 µg/mL	> 64 µg/mL	MIC (A. baumannii AB11; [3]): 0.5 µg/mL (≈ 1.18 µM); MIC (K. pneumoniae 9-1; [4]): > 64 µg/mL; MIC (A. baumannii 7979; [3]): > 64 µg/mL; MIC (E. coli ATCC 25922; [5]): > 64 µg/mL; MIC (S. aureus ATCC 29213): 0.125 µg/mL (≈ 0.294 µM)
CC1(C)S[C@@H]2[C@H](NC(=O)[C@H](N)c3ccccc3)C(=O)N2[C@H]1C(=O)O [AMP, Ampicillin]	0.5 µg/mL (≈ 1.43 µM)	16 µg/mL (≈ 45.8 µM)	16 µg/mL (≈ 45.8 µM)	16 µg/mL (≈ 45.8 µM)	0.25 µg/mL (≈ 0.715 µM)	32 µg/mL (≈ 91.6 µM)	1 µg/mL (≈ 2.86 µM)	2 µg/mL (≈ 5.72 µM)	0.5 µg/mL (≈ 1.43 µM)	16 µg/mL (≈ 45.8 µM)	16 µg/mL (≈ 45.8 µM)	> 64 µg/mL	16 µg/mL (≈ 45.8 µM)	1 µg/mL (≈ 2.86 µM)	0.25 µg/mL (≈ 0.715 µM)	32 µg/mL (≈ 91.6 µM)	1 µg/mL (≈ 2.86 µM)	32 µg/mL (≈ 91.6 µM)	> 64 µg/mL	> 64 µg/mL	MIC (A. baumannii AB11; [3]): < 0.06 µg/mL; MIC (K. pneumoniae 9-1; [4]): > 64 µg/mL; MIC (A. baumannii 7979; [3]): > 64 µg/mL; MIC (E. coli ATCC 25922; [5]): 2 µg/mL (≈ 5.72 µM)
